Experimental data: ChEMBL document CHEMBL1909046, “DrugMatrix in vitro pharmacology data”

How the values were obtained:
Melanocortin receptor 4 = Melanocortin receptor 4 (Homo sapiens, UniProt P32245); type: cell membranes, Membrane; conditions: hek293; also: in other assays of this panel Not Active means under 50% inhibition at 10 µM
[1] = biological target: Vascular endothelial growth factor receptor 1 (Homo sapiens, UniProt P17948); type: cell-based; conditions: huvec; also: in other assays of this panel Not Active means under 50% inhibition at 10 µM
Vascular endothelial growth factor receptor 1, sequence (P17948 whole entry): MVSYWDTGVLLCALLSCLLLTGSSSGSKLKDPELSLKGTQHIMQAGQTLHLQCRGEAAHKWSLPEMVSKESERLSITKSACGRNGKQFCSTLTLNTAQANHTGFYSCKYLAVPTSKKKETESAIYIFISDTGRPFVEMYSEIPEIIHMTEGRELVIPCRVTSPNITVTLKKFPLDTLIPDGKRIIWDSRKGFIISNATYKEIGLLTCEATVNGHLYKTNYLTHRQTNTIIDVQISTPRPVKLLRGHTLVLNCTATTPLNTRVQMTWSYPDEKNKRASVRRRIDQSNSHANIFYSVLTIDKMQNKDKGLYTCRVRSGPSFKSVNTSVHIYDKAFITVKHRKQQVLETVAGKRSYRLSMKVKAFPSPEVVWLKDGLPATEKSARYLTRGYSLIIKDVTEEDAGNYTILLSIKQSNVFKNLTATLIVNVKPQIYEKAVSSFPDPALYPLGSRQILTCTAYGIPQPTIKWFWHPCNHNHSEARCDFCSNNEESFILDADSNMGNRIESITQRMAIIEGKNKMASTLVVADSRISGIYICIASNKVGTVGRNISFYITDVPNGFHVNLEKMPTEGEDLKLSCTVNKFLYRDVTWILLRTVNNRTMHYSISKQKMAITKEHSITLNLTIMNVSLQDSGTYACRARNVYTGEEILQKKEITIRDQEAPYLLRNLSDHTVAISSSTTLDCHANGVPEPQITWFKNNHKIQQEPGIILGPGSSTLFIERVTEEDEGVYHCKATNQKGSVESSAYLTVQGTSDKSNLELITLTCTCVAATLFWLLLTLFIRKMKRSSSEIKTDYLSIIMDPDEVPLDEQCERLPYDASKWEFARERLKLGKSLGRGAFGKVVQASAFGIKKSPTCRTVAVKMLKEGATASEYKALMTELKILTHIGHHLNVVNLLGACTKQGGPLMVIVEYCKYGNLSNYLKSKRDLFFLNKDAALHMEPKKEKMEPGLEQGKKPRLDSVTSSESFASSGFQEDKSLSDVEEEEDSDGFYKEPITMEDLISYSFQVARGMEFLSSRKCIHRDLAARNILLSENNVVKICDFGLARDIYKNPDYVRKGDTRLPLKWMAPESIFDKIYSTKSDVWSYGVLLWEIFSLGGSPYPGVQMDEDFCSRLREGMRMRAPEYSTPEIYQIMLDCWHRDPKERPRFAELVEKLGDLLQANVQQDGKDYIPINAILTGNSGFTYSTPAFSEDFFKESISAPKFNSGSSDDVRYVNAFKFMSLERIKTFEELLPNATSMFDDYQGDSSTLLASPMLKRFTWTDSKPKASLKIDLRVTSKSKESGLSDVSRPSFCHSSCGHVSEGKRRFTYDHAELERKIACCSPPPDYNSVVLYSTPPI

D(4) dopamine receptor = biological target: T1, D(4) dopamine receptor (Homo sapiens, UniProt P21917); experiment: DRUGMATRIX: Dopamine D4.2 radioligand binding (ligand: [3H] Spiperone); type: cell membranes, CHO-K1, Membrane; conditions: cho-k1; Not Active = under 50% inhibition at 10 µM
T1 sequence (P21917 whole entry): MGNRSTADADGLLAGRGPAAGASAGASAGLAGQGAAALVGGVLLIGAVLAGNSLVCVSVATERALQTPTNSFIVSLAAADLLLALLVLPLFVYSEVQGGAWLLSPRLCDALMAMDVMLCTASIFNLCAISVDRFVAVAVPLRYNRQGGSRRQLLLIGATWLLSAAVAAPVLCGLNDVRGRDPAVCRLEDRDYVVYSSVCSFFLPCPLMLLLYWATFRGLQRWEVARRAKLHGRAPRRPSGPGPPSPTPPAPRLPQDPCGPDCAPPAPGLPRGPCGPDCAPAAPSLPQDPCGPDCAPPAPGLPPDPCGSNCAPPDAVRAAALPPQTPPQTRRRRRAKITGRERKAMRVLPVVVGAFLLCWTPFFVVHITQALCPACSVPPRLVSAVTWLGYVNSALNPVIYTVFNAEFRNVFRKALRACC

Histamine H2 receptor = Histamine H2 receptor (Homo sapiens, UniProt P25021); type: cell membranes, CHO-K1, Membrane; conditions: cho-k1; also: in other assays of this panel Not Active means under 50% inhibition at 10 µM
Histamine H2 receptor, sequence (P25021 whole entry): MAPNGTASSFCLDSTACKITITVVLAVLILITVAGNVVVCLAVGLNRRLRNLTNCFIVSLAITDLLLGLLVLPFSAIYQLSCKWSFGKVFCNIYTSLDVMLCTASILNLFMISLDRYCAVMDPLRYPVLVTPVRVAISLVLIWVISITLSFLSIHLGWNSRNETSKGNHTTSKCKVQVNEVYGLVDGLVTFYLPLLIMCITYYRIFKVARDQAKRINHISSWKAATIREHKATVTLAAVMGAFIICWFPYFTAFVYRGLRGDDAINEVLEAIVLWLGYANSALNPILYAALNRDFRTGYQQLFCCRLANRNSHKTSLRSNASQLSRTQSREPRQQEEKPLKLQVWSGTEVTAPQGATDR

[2] = DRUGMATRIX: Nicotinic Acetylcholine radioligand binding (ligand: [125I] Epibatidine); type: cell membranes, Membrane; conditions: imr-32; Not Active = under 50% inhibition at 10 µM
[3] = DRUGMATRIX: GABAA, Chloride Channel, TBOB radioligand binding (ligand: [3H] TBOB); type: cell membranes, Rattus norvegicus, Wistar, Cerebral cortex, Membrane; conditions: Not Active = under 50% inhibition at 10 µM
[4] = biological target: Tyrosine-protein kinase Fyn (Homo sapiens, UniProt P06241); experiment: biochemical; type: cell-based, Insect cells; conditions: insect cells;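 also: enzymatic inhibition of Fyn kinase activity measured with Poly(Glu:Tyr) as the phosphorylation substrate; in other assays of this panel Not Active means under 50% inhibition at 10 µM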
Tyrosine-protein kinase Fyn, sequence (P06241 whole entry): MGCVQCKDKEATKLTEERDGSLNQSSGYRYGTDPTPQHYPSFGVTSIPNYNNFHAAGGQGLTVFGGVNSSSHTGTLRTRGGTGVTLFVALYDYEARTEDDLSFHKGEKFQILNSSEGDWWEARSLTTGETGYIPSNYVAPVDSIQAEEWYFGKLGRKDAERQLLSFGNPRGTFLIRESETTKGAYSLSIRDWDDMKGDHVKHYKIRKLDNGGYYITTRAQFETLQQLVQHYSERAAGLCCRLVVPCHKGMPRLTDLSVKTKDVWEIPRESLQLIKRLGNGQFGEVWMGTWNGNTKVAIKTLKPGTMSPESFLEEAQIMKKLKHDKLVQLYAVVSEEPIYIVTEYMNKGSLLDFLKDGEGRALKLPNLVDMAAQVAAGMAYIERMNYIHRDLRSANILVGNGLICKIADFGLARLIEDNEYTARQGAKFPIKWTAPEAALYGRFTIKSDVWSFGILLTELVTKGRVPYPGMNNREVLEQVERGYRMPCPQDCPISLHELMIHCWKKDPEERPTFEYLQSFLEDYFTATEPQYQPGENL

[5] = biological target: T2, Neuropeptide Y receptor type 2 (Homo sapiens, UniProt P49146); type: cell membranes, Membrane; conditions: kan-ts; also: in other assays of this panel Not Active means under 50% inhibition at 10 µM
T2 sequence (P49146 whole entry): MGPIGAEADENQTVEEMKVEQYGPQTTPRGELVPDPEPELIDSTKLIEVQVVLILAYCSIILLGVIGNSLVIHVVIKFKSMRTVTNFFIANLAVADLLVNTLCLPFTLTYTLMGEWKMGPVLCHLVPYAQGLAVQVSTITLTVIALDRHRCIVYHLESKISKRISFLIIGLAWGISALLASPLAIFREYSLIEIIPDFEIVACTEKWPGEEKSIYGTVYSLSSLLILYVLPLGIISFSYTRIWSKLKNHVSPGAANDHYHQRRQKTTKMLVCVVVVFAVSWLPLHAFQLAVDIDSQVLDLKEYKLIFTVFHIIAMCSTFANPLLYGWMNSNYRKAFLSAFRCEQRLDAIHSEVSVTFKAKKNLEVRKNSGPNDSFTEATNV

[6] = DRUGMATRIX: Calcium Channel Type L, Benzothiazepine radioligand binding (ligand: [3H] Diltiazem); type: cell membranes, Rattus norvegicus, Wistar, Brain, Membrane; conditions: Not Active = under 50% inhibition at 10 µM
Leukotriene C4 synthase = biological target: T3, Leukotriene C4 synthase (Cavia porcellus, UniProt A6XA80); experiment: biochemical; type: tissue-based, Lung
T3 sequence (A6XA80 whole entry): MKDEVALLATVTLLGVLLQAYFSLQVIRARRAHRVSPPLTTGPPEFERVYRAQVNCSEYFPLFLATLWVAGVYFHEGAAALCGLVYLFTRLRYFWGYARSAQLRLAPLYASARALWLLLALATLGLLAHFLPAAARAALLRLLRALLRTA

[7] = biological target: T4, Alpha-1A adrenergic receptor (Rattus norvegicus, UniProt P43140); experiment: DRUGMATRIX: Alpha-1A adrenergic receptor radioligand binding (ligand: prazosin); type: cell membranes, Wistar, Submaxillary gland, Membrane; conditions: Not Active = under 50% inhibition at 10 µM
T4 sequence (P43140 whole entry): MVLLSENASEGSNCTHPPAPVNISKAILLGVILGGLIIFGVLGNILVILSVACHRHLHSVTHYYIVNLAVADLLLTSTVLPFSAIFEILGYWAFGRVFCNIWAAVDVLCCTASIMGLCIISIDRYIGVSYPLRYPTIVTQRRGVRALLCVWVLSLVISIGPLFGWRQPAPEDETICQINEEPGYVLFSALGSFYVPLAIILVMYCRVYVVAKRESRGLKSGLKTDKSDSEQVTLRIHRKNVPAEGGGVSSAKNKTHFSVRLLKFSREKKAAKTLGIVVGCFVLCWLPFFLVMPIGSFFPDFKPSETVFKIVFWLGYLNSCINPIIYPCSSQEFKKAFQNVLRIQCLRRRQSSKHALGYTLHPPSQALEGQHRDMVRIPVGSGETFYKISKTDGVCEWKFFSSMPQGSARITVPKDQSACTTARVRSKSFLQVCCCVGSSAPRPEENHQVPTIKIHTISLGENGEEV

Progesterone receptor = biological target: T5, Progesterone receptor (Bos taurus, UniProt Q690N0); experiment: DRUGMATRIX: Progesterone radioligand binding (ligand: [3H] R-5020); type: tissue-based, Uterus; conditions: Not Active = under 50% inhibition at 10 µM
T5 sequence (Q690N0 whole entry): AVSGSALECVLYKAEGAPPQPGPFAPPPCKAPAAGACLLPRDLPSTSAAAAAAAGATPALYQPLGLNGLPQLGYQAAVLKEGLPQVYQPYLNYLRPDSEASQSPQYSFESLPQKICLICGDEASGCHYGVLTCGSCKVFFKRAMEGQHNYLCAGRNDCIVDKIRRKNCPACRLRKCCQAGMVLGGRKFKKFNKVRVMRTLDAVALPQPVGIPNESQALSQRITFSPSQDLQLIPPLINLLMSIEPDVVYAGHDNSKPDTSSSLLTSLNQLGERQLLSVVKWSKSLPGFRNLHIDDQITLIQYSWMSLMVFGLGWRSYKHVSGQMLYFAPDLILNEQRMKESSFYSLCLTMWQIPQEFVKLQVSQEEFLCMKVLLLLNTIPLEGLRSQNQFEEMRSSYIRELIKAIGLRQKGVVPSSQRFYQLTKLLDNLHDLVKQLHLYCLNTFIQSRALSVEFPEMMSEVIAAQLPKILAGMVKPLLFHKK

[8] = biological target: Beta-1 adrenergic receptor (Homo sapiens, UniProt P08588); experiment: DRUGMATRIX: Adrenergic beta1 radioligand binding (ligand: [125I] Cyanopindolol); type: cell membranes, CHO-K1, Membrane; conditions: cho-k1; Not Active = under 50% inhibition at 10 µM
Beta-1 adrenergic receptor, sequence (P08588 whole entry): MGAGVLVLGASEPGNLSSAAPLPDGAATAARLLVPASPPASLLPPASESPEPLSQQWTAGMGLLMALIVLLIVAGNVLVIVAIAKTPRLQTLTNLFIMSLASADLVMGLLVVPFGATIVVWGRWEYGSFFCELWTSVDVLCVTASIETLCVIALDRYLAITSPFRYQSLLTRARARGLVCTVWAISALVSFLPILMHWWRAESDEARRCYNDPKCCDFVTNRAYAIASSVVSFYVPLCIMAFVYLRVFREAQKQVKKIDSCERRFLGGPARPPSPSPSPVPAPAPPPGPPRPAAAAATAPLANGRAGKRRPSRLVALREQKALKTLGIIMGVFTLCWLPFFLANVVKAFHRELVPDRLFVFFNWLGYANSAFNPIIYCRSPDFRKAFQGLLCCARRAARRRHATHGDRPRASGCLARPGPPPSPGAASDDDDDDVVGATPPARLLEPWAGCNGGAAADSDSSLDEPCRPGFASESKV

[9] = DRUGMATRIX: Platelet-Derived Growth Factor (PDGF) radioligand binding (ligand: [125I] PDGF); type: cell-based; conditions: nih3t3; Not Active = under 50% inhibition at 10 µM
[10] = DRUGMATRIX: Glutamate, NMDA, Phencyclidine radioligand binding (ligand: [3H] TCP); type: cell membranes, Rattus norvegicus, Wistar, Cerebral cortex, Membrane; conditions: Not Active = under 50% inhibition at 10 µM
Melanocortin receptor 3 = Melanocortin receptor 3 (Homo sapiens, UniProt P41968); type: cell membranes, Membrane; conditions: hek293; also: in other assays of this panel Not Active means under 50% inhibition at 10 µM
Melanocortin receptor 3, sequence (P41968 whole entry): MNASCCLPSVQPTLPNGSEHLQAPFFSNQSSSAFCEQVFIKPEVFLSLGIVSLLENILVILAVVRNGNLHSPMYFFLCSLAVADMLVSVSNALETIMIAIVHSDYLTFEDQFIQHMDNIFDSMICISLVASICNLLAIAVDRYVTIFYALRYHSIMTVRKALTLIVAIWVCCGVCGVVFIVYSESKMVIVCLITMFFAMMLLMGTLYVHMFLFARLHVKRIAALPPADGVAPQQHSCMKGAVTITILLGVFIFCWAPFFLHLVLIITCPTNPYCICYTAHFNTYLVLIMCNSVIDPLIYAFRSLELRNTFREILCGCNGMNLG

[11] = DRUGMATRIX: beta-Lactamase enzyme inhibition (substrate: Nitrocefin); parameters: species or system Bacillus cereus; conditions: Not Active = under 50% inhibition at 10 µM

Melanocortin receptor 4, sequence (P32245 whole entry): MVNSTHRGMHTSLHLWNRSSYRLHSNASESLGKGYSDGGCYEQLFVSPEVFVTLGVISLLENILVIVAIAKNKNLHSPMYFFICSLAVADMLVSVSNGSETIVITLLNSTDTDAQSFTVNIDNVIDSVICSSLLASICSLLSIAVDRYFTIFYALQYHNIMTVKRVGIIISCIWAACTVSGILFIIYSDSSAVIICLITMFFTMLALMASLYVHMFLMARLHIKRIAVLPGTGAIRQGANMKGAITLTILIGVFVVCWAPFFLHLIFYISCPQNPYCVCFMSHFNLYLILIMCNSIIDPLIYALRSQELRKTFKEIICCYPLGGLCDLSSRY

c1ccc2[nH]c(-c3cscn3)nc2c1 [THIABENDAZOLE]
Not Active: IC50 (Melanocortin receptor 4) | IC50 [1] | IC50 (D(4) dopamine receptor) | IC50 (Histamine H2 receptor) | IC50 [2] | Ki [2] | IC50 [3] | Ki [3] | IC50 [4] | IC50 [5] | IC50 [6] | Ki [6] | IC50 (Leukotriene C4 synthase) | IC50 [7] | IC50 (Progesterone receptor) | IC50 [8] | IC50 [9] | Ki [9] | IC50 [10] | Ki [10] | IC50 (Melanocortin receptor 3) | IC50 [11] | Ki [11]

Cc1ccc(C(=O)C(C)CN2CCCCC2)cc1 (stereo not drawn) [TOLPERISONE]
Not Active: IC50 (Melanocortin receptor 4) | IC50 [1] | IC50 (D(4) dopamine receptor) | IC50 (Histamine H2 receptor) | IC50 [2] | Ki [2] | IC50 [3] | Ki [3] | IC50 [4] | IC50 [5] | IC50 [6] | Ki [6] | IC50 (Leukotriene C4 synthase) | IC50 [7] | IC50 (Progesterone receptor) | IC50 [8] | IC50 [9] | Ki [9] | IC50 [10] | Ki [10] | IC50 (Melanocortin receptor 3) | IC50 [11] | Ki [11]

NC(CO)(CO)CO [TROMETHAMINE]
Not Active: IC50 (Melanocortin receptor 4) | IC50 [1] | IC50 (D(4) dopamine receptor) | IC50 (Histamine H2 receptor) | IC50 [2] | Ki [2] | IC50 [3] | Ki [3] | IC50 [4] | IC50 [5] | IC50 [6] | Ki [6] | IC50 (Leukotriene C4 synthase) | IC50 [7] | IC50 (Progesterone receptor) | IC50 [8] | IC50 [9] | Ki [9] | IC50 [10] | Ki [10] | IC50 (Melanocortin receptor 3) | IC50 [11] | Ki [11]

COc1cc(C(=O)NC2CCCNC2)cc(OC)c1OC (stereo not drawn) [TROXIPIDE]
Not Active: IC50 (Melanocortin receptor 4) | IC50 [1] | IC50 (D(4) dopamine receptor) | IC50 (Histamine H2 receptor) | IC50 [2] | Ki [2] | IC50 [3] | Ki [3] | IC50 [4] | IC50 [5] | IC50 [6] | Ki [6] | IC50 (Leukotriene C4 synthase) | IC50 [7] | IC50 (Progesterone receptor) | IC50 [8] | IC50 [9] | Ki [9] | IC50 [10] | Ki [10] | IC50 (Melanocortin receptor 3) | IC50 [11] | Ki [11]

CC(C)[C@H](N)C(=O)OCCOCn1cnc2c(=O)nc(N)[nH]c21 [VALACYCLOVIR]
Not Active: IC50 (Melanocortin receptor 4) | IC50 [1] | IC50 (D(4) dopamine receptor) | IC50 (Histamine H2 receptor) | IC50 [2] | Ki [2] | IC50 [3] | Ki [3] | IC50 [4] | IC50 [5] | IC50 [6] | Ki [6] | IC50 (Leukotriene C4 synthase) | IC50 [7] | IC50 (Progesterone receptor) | IC50 [8] | IC50 [9] | Ki [9] | IC50 [10] | Ki [10] | IC50 (Melanocortin receptor 3) | IC50 [11] | Ki [11]

CN[C@H](CC(C)C)C(=O)N[C@H]1C(=O)N[C@@H](CC(N)=O)C(=O)N[C@H]2C(=O)N[C@H]3C(=O)N[C@H](C(=O)N[C@H](C(=O)O)c4cc(O)cc(O)c4-c4cc3ccc4O)[C@H](O)c3ccc(c(Cl)c3)Oc3cc2cc(c3O[C@@H]2O[C@H](CO)[C@@H](O)[C@H](O)[C@H]2O[C@H]2C[C@](C)(N)[C@H](O)[C@H](C)O2)Oc2ccc(cc2Cl)[C@H]1O [VANCOMYCIN]
Not Active: IC50 (Melanocortin receptor 4) | IC50 [1] | IC50 (D(4) dopamine receptor) | IC50 (Histamine H2 receptor) | IC50 [2] | Ki [2] | IC50 [3] | Ki [3] | IC50 [4] | IC50 [5] | IC50 [6] | Ki [6] | IC50 (Leukotriene C4 synthase) | IC50 [7] | IC50 (Progesterone receptor) | IC50 [8] | IC50 [9] | Ki [9] | IC50 [10] | Ki [10] | IC50 (Melanocortin receptor 3) | IC50 [11] | Ki [11]
